Reference: US7402548B2, “Benzoxazole compounds, process for producing the same and herbicides” (Kyoyu Agri Co., Ltd., priority 2000, dated 2008)

Experiments:
cotton = assay: Soil treatment test for upland field; assay type: in vivo; settings: 500 g/ha, 3 weeks, glass house 25° C. Also: key: 0: normal development; 1: Less damaged; 2: Slightly damaged; 3: Moderately damaged; 4: Severely damaged; 5: All killed.
Outline: (§1)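 Pre-emergence soil spray, 500 g/ha, WP formulation in water + 0.05% surfactant; alluvial soil; glasshouse, avg 25° C, 3 wk. Score 0 (normal) to 5 (all killed) vs untreated.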

[1] = tested on: sicklepod (Cassia obtusifolia); assay: Soil treatment test for upland field; assay type: in vivo; settings: 500 g/ha, 3 weeks, glass house 25° C. Also: key: 0: normal development; 1: Less damaged; 2: Slightly damaged; 3: Moderately damaged; 4: Severely damaged; 5: All killed.
Outline: as §1

[2] = tested on: common Cocklebur (Xanthium strumarium); assay: Soil treatment test for upland field; assay type: in vivo; settings: 500 g/ha, 3 weeks, glass house 25° C. Also: key: 0: normal development; 1: Less damaged; 2: Slightly damaged; 3: Moderately damaged; 4: Severely damaged; 5: All killed.
Outline: as §1

Cyperus serotinus Rottb. = assay: Herbicidal test for paddy field; assay type: in vivo; settings: 500 g/ha, dropwise addition to paddy water at 1.5 leaf stage of barnyard grass; glass house 25° C., 3 weeks; rank 0-5 vs non-treated district; also: key: 0: normal development; 1: Less damaged; 2: Slightly damaged; 3: Moderately damaged; 4: Severely damaged; 5: All killed
Outline: (§2)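 Wettable-powder formulations in water with 0.05% surfactant were dripped onto flooded (3 cm) Ube alluvial-soil pots at 500 g/ha, applied at barnyard grass 1.5-leaf stage. Plants were kept in a glasshouse at 25° C. for 3 weeks. Damage was scored 0 (normal) to 5 (all killed) versus untreated plants.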

soybean = assay: Soil treatment test for upland field; assay type: in vivo; parameters: key: 0 = normal development, 5 = all killed; settings: 500 g/ha, 3 weeks, glass house 25° C.
Outline: as §1

morning glory = assay: Foliar spread test for upland field; assay type: in vivo, Ipomoea spps.; parameters: key: 0 = normal development, 5 = all killed (6 ranks vs. untreated); settings: foliar spray, 500 ppm, 3 weeks, glass house 25° C.
Outline: (§3)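 Seeds were sown in volcanic ash soil in Wagner pots and grown about 2 weeks in a glass house at an average 25° C. Wettable-powder formulations diluted to 500 ppm in water with 0.5% surfactant were sprayed uniformly over the plants. After 3 further weeks at 25° C, damage was scored 0 (normal) to 5 (all killed) against untreated plants.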

Large crabgrass = assay: Soil treatment test for upland field; assay type: in vivo, Digitaria adscendens; parameters: key: 0 = normal development, 5 = all killed; settings: 500 g/ha, 3 weeks, glass house 25° C.
Outline: as §1

green foxtail [3] = assay: Soil treatment test for upland field; assay type: in vivo, Setaria viridis; parameters: key: 0 = normal development, 5 = all killed; settings: 500 g/ha, 3 weeks, glass house 25° C.
Outline: as §1

arrowhead = assay: Herbicidal test for paddy field; assay type: in vivo, Sagittaria pygmaea; settings: 500 g/ha, dropwise addition to paddy water at 1.5 leaf stage of barnyard grass; glass house 25° C., 3 weeks; rank 0-5 vs non-treated district
Outline: as §2

bulrush = assay: Herbicidal test for paddy field; assay type: in vivo, Scrips juncoides; settings: 500 g/ha, dropwise addition to paddy water at 1.5 leaf stage of barnyard grass; glass house 25° C., 3 weeks; rank 0-5 vs non-treated district
Outline: as §2

green foxtail [4] = assay: Foliar spread test for upland field; assay type: in vivo, Setaria viridis; parameters: key: 0 = normal development, 5 = all killed (6 ranks vs. untreated); settings: foliar spray, 500 ppm, 3 weeks, glass house 25° C.
Outline: as §3

livid amaranth = assay: Foliar spread test for upland field; assay type: in vivo, Amaranthus lividus; parameters: key: 0 = normal development, 5 = all killed (6 ranks vs. untreated); settings: foliar spray, 500 ppm, 3 weeks, glass house 25° C.
Outline: as §3

barnyardgrjass = assay: Foliar spread test for upland field; assay type: in vivo, Eschinochloa crusgalli; parameters: key: 0 = normal development, 5 = all killed (6 ranks vs. untreated); settings: foliar spray, 500 ppm, 3 weeks, glass house 25° C.
Outline: as §3

young rice plant = assay: Herbicidal test for paddy field; assay type: in vivo; settings: 500 g/ha, dropwise addition to paddy water at 1.5 leaf stage of barnyard grass; glass house 25° C., 3 weeks; rank 0-5 vs non-treated district
Description: Then, the pots were filled with water to a depth of 3 cm. […] These plants were controlled in a glass house at an average temperature of 25° C. for 3 weeks, and then herbicidal effects thereof were investigated. The herbicidal effects are evaluated according to the following 6 ranks as compared with non-treated district. […] Incidentally, “-” in the column means not investigated.

Compound | Effects Sotton (cotton) | Effects Sicklepod [1] | Effects Common Cocklebur [2] | Effects Cyperus serotinus Rottb. (Cyperus serotinus Rottb.) | Effects Soybean (soybean) | Effects Morning glory (morning glory) | Effects Large crabgrass (Large crabgrass) | Effects Green foxtail (green foxtail [3]) | Effects Arrowhead (arrowhead) | Effects Bulrush (bulrush) | Effects Green foxtail (green foxtail [4]) | Effects Livid amaranth (livid amaranth) | Effects Barnyardgrass (barnyardgrjass) | Effects Young rice plant (young rice plant)
Fc1ccc2nc(-c3cccc(Oc4ccc(F)c(C(F)(F)F)c4)n3)oc2c1 [I-a-7] | 0 | 3 | 0 | 0 | 2 | 3 | 5 | 5 | 0 | 0 | 3 | 5 | 1 | 
FC(F)(F)c1cccc(Oc2cccc(-c3nc4cc(Cl)ccc4o3)n2)c1 [I-a-3, 6-(5-chlorobenzoxazol-2-yl)-2-(3-trifluoromethylphenoxy)pyridine] |  | 5 | 2 | 0 | 3 | 5 | 5 | 5 | 0 | 0 | 3 | 5 | 1 | 2
Fc1ccc2nc(-c3cccc(Oc4cccc(C(F)(F)F)c4)n3)oc2c1 [I-a-6, 6-(6-fluorobenzoxazol-2-yl)-2-(3-trifluoromethylphenoxy)pyridine] | 1 | 1 | 0 | 2 |  | 5 | 5 | 5 | 0 |  | 5 | 5 | 5 | 3
